Where a SMILES comes first, the peptide text is derived from it. Bridges are numbered along the chain shown (N, C = ends). [ ]: non-standard residue; d: D form. The star is where a group is joined. Bip = N[C@@H](Cc1ccc(-c2ccccc2)cc1)C(=O)O; Ala(cPent) = N[C@@H](CC1CCCC1)C(=O)O; 4Pal = N[C@@H](Cc1ccncc1)C(=O)O; Cha = N[C@@H](CC1CCCCC1)C(=O)O; Gly(cPr) = N[C@H](C(=O)O)C1CC1; Chg = N[C@H](C(=O)O)C1CCCCC1; Phg = N[C@H](C(=O)O)c1ccccc1; dNle = CCCC[C@@H](N)C(=O)O; Carboxymethyl = O=C(O)C*; Nle = CCCC[C@H](N)C(=O)O; Orn = NCCC[C@H](N)C(=O)O; Dab = NCC[C@H](N)C(=O)O; Abu = CC[C@H](N)C(=O)O; Dap = NC[C@H](N)C(=O)O
target: T1, human PD-1 / PD-L1-Ig binding on Jurkat cell line over-expressing human PD-1 (Jurkat-PD-1) (Homo sapiens, UniProt Q15116); experiment: Jurkat-PD-1 Cell Binding High-Content Screening Assay (CBA); format: cell-based; conditions: Jurkat-PD-1 cells, PE-labeled PD-L1-Ig 20 nM final; read-out: Jurkat HPD1_PDL1 IC50
T1 construct: expressed in transfected cells; host or cells: Jurkat
T1 sequence (Q15116 25-288): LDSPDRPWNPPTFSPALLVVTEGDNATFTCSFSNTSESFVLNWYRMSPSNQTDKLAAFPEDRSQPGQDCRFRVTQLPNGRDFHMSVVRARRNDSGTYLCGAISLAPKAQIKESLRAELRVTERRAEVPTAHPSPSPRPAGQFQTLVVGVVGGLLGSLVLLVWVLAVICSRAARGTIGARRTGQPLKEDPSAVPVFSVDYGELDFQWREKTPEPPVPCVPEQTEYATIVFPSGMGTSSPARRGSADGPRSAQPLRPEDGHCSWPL
Outline: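 Jurkat cells over-expressing human PD-1, in DMEM/10% FCS, pre-incubated with compound 2 h at 37° C. PE-labeled human PD-L1-Ig (20 nM final) added for 1 h; cells fixed in paraformaldehyde with Hoechst 33342 nuclear stain, washed, and bound fluorescence quantified by high-content imaging.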

IC50 | Compound
10.4 nM | CCCC[C@H]1NC(=O)[C@H](CCCN)NC(=O)[C@H]([C@@H](C)CC)NC(=O)[C@H](Cc2ccc(-c3ccccc3)cc2)NC(=O)[C@H](C(C)C)NC(=O)[C@H](Cc2c[nH]c3ccccc23)NC(=O)[C@H](CC(=O)O)NC(=O)[C@H](Cc2ccc(OCC(=O)O)cc2)NC(=O)[C@H](Cc2ccncc2)NC(=O)CSC[C@@H](C(=O)N[C@@H](C)C(N)=O)NC(=O)[C@H]([C@@H](C)O)NC(=O)[C@H](C(C)C)NC(=O)[C@H](CC2CCCCC2)NC(=O)[C@H](CCN)NC1=O [Compound 1709]
33.9 nM | CCCC[C@H]1NC(=O)[C@H](CCCN)NC(=O)[C@H]([C@@H](C)CC)NC(=O)[C@H](Cc2ccc(-c3ccccc3)cc2)NC(=O)[C@H](C(C)C)NC(=O)[C@H](Cc2c[nH]c3ccccc23)NC(=O)[C@H](CC(=O)O)NC(=O)[C@H](Cc2ccncc2)NC(=O)[C@H](Cc2ccc(OCC(=O)O)cc2)NC(=O)CSC[C@@H](C(=O)N[C@@H](C)C(N)=O)NC(=O)[C@H]([C@@H](C)O)NC(=O)[C@H](C(C)C)NC(=O)[C@H](CC2CCCCC2)NC(=O)[C@H](CCN)NC1=O [Compound 1710] ({CH2CO}-Y(Carboxymethyl)[4Pal]DWV[Bip]I[Orn][dNle][Dab][Cha]VTCA-NH2; thioether N-14)
12.8 nM | CCCC[C@H]1NC(=O)[C@H](CCCN)NC(=O)[C@H]([C@@H](C)CC)NC(=O)[C@H](Cc2ccc(-c3ccccc3)cc2)NC(=O)[C@H](C(C)C)NC(=O)[C@H](Cc2c[nH]c3ccccc23)NC(=O)[C@H](CC(=O)O)NC(=O)[C@H](Cc2ccncc2)NC(=O)[C@H](CN)NC(=O)CSC[C@@H](C(=O)N[C@@H](C)C(N)=O)NC(=O)[C@H]([C@@H](C)O)NC(=O)[C@H](C(C)C)NC(=O)[C@H](CC2CCCCC2)NC(=O)[C@H](CCN)NC1=O [Compound 1711] ({CH2CO}-[Dap][4Pal]DWV[Bip]I[Orn][dNle][Dab][Cha]VTCA-NH2; thioether N-14)
25.1 nM | CCCC[C@H]1NC(=O)[C@H](CCCN)NC(=O)[C@H]([C@@H](C)CC)NC(=O)[C@H](Cc2ccc(-c3ccccc3)cc2)NC(=O)[C@H](C(C)C)NC(=O)[C@H](Cc2c[nH]c3ccccc23)NC(=O)[C@H](CC(=O)O)NC(=O)[C@H](Cc2ccc(O)cc2)NC(=O)[C@H](CC(N)=O)NC(=O)CSC[C@@H](C(=O)N[C@@H](C)C(N)=O)NC(=O)[C@H]([C@@H](C)O)NC(=O)[C@H](C(C)C)NC(=O)[C@H](CC2CCCCC2)NC(=O)[C@H](CCN)NC1=O [Compound 1712] ({CH2CO}-NYDWV[Bip]I[Orn][dNle][Dab][Cha]VTCA-NH2; thioether N-14)
37.6 nM | CC(C)C[C@H]1NC(=O)[C@H](CCCN)NC(=O)[C@H](CCC(=O)O)NC(=O)[C@H](Cc2ccc(-c3ccccc3)cc2)NC(=O)[C@H](C2CCCCC2)NC(=O)[C@H](Cc2c[nH]c3ccccc23)NC(=O)[C@H](CC(=O)O)NC(=O)[C@H](Cc2ccc(OCC(=O)O)cc2)NC(=O)[C@H](CN)NC(=O)CSC[C@@H](C(=O)N[C@@H](C)C(N)=O)NC(=O)[C@H]([C@@H](C)O)NC(=O)[C@H](C(C)C)NC(=O)[C@H](CC2CCCCC2)NC(=O)[C@H](CCN)NC1=O [Compound 1714] ({CH2CO}-[Dap]Y(Carboxymethyl)DW[Chg][Bip]E[Orn][dL][Dab][Cha]VTCA-NH2; thioether N-14)
38.4 nM | CC(C)C[C@H]1NC(=O)[C@H](CCCN)NC(=O)[C@H](CCC(=O)O)NC(=O)[C@H](Cc2ccc(-c3ccccc3)cc2)NC(=O)[C@H](CC2CCCC2)NC(=O)[C@H](Cc2c[nH]c3ccccc23)NC(=O)[C@H](CC(=O)O)NC(=O)[C@H](Cc2ccc(OCC(=O)O)cc2)NC(=O)[C@H](CN)NC(=O)CSC[C@@H](C(=O)N[C@@H](C)C(N)=O)NC(=O)[C@H]([C@@H](C)O)NC(=O)[C@H](C(C)C)NC(=O)[C@H](CC2CCCCC2)NC(=O)[C@H](CCN)NC1=O [Compound 1715] ({CH2CO}-[Dap]Y(Carboxymethyl)DW[Ala(cPent)][Bip]E[Orn][dL][Dab][Cha]VTCA-NH2; thioether N-14)
24.9 nM | CC(C)C[C@H]1NC(=O)[C@H](CCCN)NC(=O)[C@H](CCC(=O)O)NC(=O)[C@H](Cc2ccc(-c3ccccc3)cc2)NC(=O)[C@H](C2CC2)NC(=O)[C@H](Cc2c[nH]c3ccccc23)NC(=O)[C@H](CC(=O)O)NC(=O)[C@H](Cc2ccc(OCC(=O)O)cc2)NC(=O)[C@H](CN)NC(=O)CSC[C@@H](C(=O)N[C@@H](C)C(N)=O)NC(=O)[C@H]([C@@H](C)O)NC(=O)[C@H](C(C)C)NC(=O)[C@H](CC2CCCCC2)NC(=O)[C@H](CCN)NC1=O [Compound 1716] ({CH2CO}-[Dap]Y(Carboxymethyl)DW[Gly(cPr)][Bip]E[Orn][dL][Dab][Cha]VTCA-NH2; thioether N-14)
27.7 nM | CC[C@H](C)[C@@H]1NC(=O)[C@H](Cc2c[nH]c3ccccc23)NC(=O)[C@H](CC(=O)O)NC(=O)[C@H](Cc2ccc(OCC(=O)O)cc2)NC(=O)[C@H](CN)NC(=O)CSC[C@@H](C(=O)N[C@@H](C)C(N)=O)NC(=O)[C@H]([C@@H](C)O)NC(=O)[C@H](C(C)C)NC(=O)[C@H](CC2CCCCC2)NC(=O)[C@H](CCN)NC(=O)[C@@H](CC(C)C)NC(=O)[C@H](CCCN)NC(=O)[C@H](CCC(=O)O)NC(=O)[C@H](Cc2ccc(-c3ccccc3)cc2)NC1=O [Compound 1717] ({CH2CO}-[Dap]Y(Carboxymethyl)DWI[Bip]E[Orn][dL][Dab][Cha]VTCA-NH2; thioether N-14)
24.2 nM | CCCC[C@@H]1NC(=O)[C@H](Cc2c[nH]c3ccccc23)NC(=O)[C@H](CC(=O)O)NC(=O)[C@H](Cc2ccc(OCC(=O)O)cc2)NC(=O)[C@H](CN)NC(=O)CSC[C@@H](C(=O)N[C@@H](C)C(N)=O)NC(=O)[C@H]([C@@H](C)O)NC(=O)[C@H](C(C)C)NC(=O)[C@H](CC2CCCCC2)NC(=O)[C@H](CCN)NC(=O)[C@@H](CC(C)C)NC(=O)[C@H](CCCN)NC(=O)[C@H](CCC(=O)O)NC(=O)[C@H](Cc2ccc(-c3ccccc3)cc2)NC1=O [Compound 1718] ({CH2CO}-[Dap]Y(Carboxymethyl)DW[Nle][Bip]E[Orn][dL][Dab][Cha]VTCA-NH2; thioether N-14)
21 nM | CCC[C@@H]1NC(=O)[C@H](Cc2c[nH]c3ccccc23)NC(=O)[C@H](CC(=O)O)NC(=O)[C@H](Cc2ccc(OCC(=O)O)cc2)NC(=O)[C@H](CN)NC(=O)CSC[C@@H](C(=O)N[C@@H](C)C(N)=O)NC(=O)[C@H]([C@@H](C)O)NC(=O)[C@H](C(C)C)NC(=O)[C@H](CC2CCCCC2)NC(=O)[C@H](CCN)NC(=O)[C@@H](CC(C)C)NC(=O)[C@H](CCCN)NC(=O)[C@H](CCC(=O)O)NC(=O)[C@H](Cc2ccc(-c3ccccc3)cc2)NC1=O [Compound 1719]
24 nM | CC(C)C[C@H]1NC(=O)[C@H](CCCN)NC(=O)[C@H](CCC(=O)O)NC(=O)[C@H](Cc2ccc(-c3ccccc3)cc2)NC(=O)[C@H](c2ccccc2)NC(=O)[C@H](Cc2c[nH]c3ccccc23)NC(=O)[C@H](CC(=O)O)NC(=O)[C@H](Cc2ccc(OCC(=O)O)cc2)NC(=O)[C@H](CN)NC(=O)CSC[C@@H](C(=O)N[C@@H](C)C(N)=O)NC(=O)[C@H]([C@@H](C)O)NC(=O)[C@H](C(C)C)NC(=O)[C@H](CC2CCCCC2)NC(=O)[C@H](CCN)NC1=O [Compound 1720] ({CH2CO}-[Dap]Y(Carboxymethyl)DW[Phg][Bip]E[Orn][dL][Dab][Cha]VTCA-NH2; thioether N-14)
11.3 nM | CC[C@@H]1NC(=O)[C@H](Cc2c[nH]c3ccccc23)NC(=O)[C@H](CC(=O)O)NC(=O)[C@H](Cc2ccc(OCC(=O)O)cc2)NC(=O)[C@H](CN)NC(=O)CSC[C@@H](C(=O)N[C@@H](C)C(N)=O)NC(=O)[C@H]([C@@H](C)O)NC(=O)[C@H](C(C)C)NC(=O)[C@H](CC2CCCCC2)NC(=O)[C@H](CCN)NC(=O)[C@@H](CC(C)C)NC(=O)[C@H](CCCN)NC(=O)[C@H]([C@@H](C)CC)NC(=O)[C@H](Cc2ccc(-c3ccccc3)cc2)NC1=O [Compound 1721] ({CH2CO}-[Dap]Y(Carboxymethyl)DW[Abu][Bip]I[Orn][dL][Dab][Cha]VTCA-NH2; thioether N-14)
27.5 nM | CC[C@H](C)[C@@H]1NC(=O)[C@H](Cc2ccc(-c3ccccc3)cc2)NC(=O)[C@H](C2CCCCC2)NC(=O)[C@H](Cc2c[nH]c3ccccc23)NC(=O)[C@H](CC(=O)O)NC(=O)[C@H](Cc2ccc(OCC(=O)O)cc2)NC(=O)[C@H](CN)NC(=O)CSC[C@@H](C(=O)N[C@@H](C)C(N)=O)NC(=O)[C@H]([C@@H](C)O)NC(=O)[C@H](C(C)C)NC(=O)[C@H](CC2CCCCC2)NC(=O)[C@H](CCN)NC(=O)[C@@H](CC(C)C)NC(=O)[C@H](CCCN)NC1=O [Compound 1722] ({CH2CO}-[Dap]Y(Carboxymethyl)DW[Chg][Bip]I[Orn][dL][Dab][Cha]VTCA-NH2; thioether N-14)
20.8 nM | CC[C@H](C)[C@@H]1NC(=O)[C@H](Cc2ccc(-c3ccccc3)cc2)NC(=O)[C@H](CC2CCCC2)NC(=O)[C@H](Cc2c[nH]c3ccccc23)NC(=O)[C@H](CC(=O)O)NC(=O)[C@H](Cc2ccc(OCC(=O)O)cc2)NC(=O)[C@H](CN)NC(=O)CSC[C@@H](C(=O)N[C@@H](C)C(N)=O)NC(=O)[C@H]([C@@H](C)O)NC(=O)[C@H](C(C)C)NC(=O)[C@H](CC2CCCCC2)NC(=O)[C@H](CCN)NC(=O)[C@@H](CC(C)C)NC(=O)[C@H](CCCN)NC1=O [Compound 1723] ({CH2CO}-[Dap]Y(Carboxymethyl)DW[Ala(cPent)][Bip]I[Orn][dL][Dab][Cha]VTCA-NH2; thioether N-14)
17.7 nM | CC[C@H](C)[C@@H]1NC(=O)[C@H](Cc2ccc(-c3ccccc3)cc2)NC(=O)[C@H](C2CC2)NC(=O)[C@H](Cc2c[nH]c3ccccc23)NC(=O)[C@H](CC(=O)O)NC(=O)[C@H](Cc2ccc(OCC(=O)O)cc2)NC(=O)[C@H](CN)NC(=O)CSC[C@@H](C(=O)N[C@@H](C)C(N)=O)NC(=O)[C@H]([C@@H](C)O)NC(=O)[C@H](C(C)C)NC(=O)[C@H](CC2CCCCC2)NC(=O)[C@H](CCN)NC(=O)[C@@H](CC(C)C)NC(=O)[C@H](CCCN)NC1=O [Compound 1724] ({CH2CO}-[Dap]Y(Carboxymethyl)DW[Gly(cPr)][Bip]I[Orn][dL][Dab][Cha]VTCA-NH2; thioether N-14)
